Test results: patent publication US20260356819A1, “OXOISOINDOLINYL-SUBSTITUTED […] DERIVATIVE AND USE THEREOF” (GLUETACS THERAPEUTICS (SHANGHAI) CO., LTD., priority 2023, published 2026)

Legend:
Format in all cases: cell-based
Conditions in all cases: compounds at 50 nM and 500 nM
[1] = biological target: T1, IKZF2 (Homo sapiens, UniProt Q96SW2+Q9UKS7); assay: Western blot degradation of IKZF2 in hPBMCs (24 h)
T1 construct: The supernatant was aspirated as the extracted total cell protein; endogenous in cells; host or cells: human peripheral blood mononuclear cells (hPBMCs)
In short: (§1)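 Compounds were tested at 50 nM and 500 nM on hPBMCs (1×10^6 cells/mL) for 24 h, alongside DMSO. Proteins were detected by Western blot after denaturation at 95 °C; remaining protein computed from normalised band grayscale.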

[2] = biological target: T2, WEE1 (Homo sapiens, UniProt P30291+Q96SW2); assay: Western blot degradation of WEE1 in hPBMCs (24 h)
T2 construct: The supernatant was aspirated as the extracted total cell protein; endogenous in cells; host or cells: human peripheral blood mononuclear cells (hPBMCs)
T2 sequence (P30291 whole entry): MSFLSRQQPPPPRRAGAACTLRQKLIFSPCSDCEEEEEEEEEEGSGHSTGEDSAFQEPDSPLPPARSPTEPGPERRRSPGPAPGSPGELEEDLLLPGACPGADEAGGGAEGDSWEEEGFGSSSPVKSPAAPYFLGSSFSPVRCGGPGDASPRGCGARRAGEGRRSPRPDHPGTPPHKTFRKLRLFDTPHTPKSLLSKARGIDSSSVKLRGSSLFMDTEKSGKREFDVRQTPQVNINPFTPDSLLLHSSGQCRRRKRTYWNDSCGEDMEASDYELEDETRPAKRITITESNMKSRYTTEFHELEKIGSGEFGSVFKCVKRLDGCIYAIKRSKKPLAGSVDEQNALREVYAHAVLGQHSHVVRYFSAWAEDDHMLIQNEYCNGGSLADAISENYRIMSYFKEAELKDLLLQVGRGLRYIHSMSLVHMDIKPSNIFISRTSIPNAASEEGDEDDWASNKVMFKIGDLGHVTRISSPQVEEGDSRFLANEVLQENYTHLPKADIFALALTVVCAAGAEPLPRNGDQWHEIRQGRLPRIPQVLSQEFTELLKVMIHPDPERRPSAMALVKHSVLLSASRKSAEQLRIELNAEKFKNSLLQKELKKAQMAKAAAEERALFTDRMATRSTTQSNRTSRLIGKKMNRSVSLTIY
T2 sequence (Q96SW2 whole entry): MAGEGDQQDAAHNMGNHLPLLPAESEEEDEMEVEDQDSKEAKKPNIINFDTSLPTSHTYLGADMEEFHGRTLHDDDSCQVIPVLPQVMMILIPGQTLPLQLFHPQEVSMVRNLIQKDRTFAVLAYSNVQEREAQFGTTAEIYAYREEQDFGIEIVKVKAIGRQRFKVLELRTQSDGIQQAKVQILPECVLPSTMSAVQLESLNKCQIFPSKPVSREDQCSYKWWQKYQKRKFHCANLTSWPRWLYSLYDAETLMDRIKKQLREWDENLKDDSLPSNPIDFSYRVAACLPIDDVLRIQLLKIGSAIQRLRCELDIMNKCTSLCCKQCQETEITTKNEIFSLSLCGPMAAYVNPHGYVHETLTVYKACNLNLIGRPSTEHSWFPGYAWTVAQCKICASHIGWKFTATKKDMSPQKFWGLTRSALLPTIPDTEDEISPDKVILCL
T2 sequence (Q16531 whole entry partner): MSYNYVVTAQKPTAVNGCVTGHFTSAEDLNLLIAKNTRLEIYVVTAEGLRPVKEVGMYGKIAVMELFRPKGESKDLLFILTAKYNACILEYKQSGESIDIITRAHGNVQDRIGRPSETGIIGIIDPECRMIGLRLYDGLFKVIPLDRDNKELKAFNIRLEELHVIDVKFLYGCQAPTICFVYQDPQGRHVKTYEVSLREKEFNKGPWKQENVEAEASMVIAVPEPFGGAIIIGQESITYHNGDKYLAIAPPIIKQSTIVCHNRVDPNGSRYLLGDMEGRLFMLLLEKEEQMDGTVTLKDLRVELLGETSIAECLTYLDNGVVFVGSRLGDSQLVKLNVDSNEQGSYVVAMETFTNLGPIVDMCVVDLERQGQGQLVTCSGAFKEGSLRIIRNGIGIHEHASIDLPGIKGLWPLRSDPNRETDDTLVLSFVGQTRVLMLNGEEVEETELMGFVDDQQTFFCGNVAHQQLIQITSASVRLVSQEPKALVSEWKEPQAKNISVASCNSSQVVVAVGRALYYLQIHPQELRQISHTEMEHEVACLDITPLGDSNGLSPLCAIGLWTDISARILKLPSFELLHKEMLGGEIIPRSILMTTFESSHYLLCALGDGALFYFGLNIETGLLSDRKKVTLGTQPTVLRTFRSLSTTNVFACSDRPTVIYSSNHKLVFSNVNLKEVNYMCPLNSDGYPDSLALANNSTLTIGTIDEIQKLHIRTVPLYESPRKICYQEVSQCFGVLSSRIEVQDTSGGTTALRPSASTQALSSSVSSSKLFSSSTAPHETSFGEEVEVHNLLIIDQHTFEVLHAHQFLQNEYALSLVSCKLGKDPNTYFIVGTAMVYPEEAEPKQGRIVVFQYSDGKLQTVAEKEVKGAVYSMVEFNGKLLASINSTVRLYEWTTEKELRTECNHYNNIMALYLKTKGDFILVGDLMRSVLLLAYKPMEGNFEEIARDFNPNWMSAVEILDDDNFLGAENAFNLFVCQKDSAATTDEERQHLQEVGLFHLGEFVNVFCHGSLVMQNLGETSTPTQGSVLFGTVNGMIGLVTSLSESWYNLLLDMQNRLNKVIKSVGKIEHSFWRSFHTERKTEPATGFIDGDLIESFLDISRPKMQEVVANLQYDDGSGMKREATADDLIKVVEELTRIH
In short: as §1

[3] = biological target: T3, IKZF3 (Homo sapiens, UniProt Q96SW2+Q9UKT9); assay: Western blot degradation of IKZF3 in hPBMCs (24 h)
T3 construct: The supernatant was aspirated as the extracted total cell protein; endogenous in cells; host or cells: human peripheral blood mononuclear cells (hPBMCs)
T3 sequence (Q9UKT9 whole entry): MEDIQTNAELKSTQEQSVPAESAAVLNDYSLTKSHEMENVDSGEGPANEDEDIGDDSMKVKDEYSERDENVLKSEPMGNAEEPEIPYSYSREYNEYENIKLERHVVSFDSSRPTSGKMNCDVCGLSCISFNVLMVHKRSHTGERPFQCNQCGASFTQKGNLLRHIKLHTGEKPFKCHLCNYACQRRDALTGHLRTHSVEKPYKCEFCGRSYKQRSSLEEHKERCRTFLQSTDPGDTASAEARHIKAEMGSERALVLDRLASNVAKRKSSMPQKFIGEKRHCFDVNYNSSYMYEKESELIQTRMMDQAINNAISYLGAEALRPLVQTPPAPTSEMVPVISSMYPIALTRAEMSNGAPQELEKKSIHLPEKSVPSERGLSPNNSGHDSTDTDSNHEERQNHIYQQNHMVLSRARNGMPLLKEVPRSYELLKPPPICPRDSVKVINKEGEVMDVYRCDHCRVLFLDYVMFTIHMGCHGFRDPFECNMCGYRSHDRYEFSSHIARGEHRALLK
T3 sequence (Q96SW2 whole entry): as the sequence (Q96SW2 whole entry) above
T3 sequence (Q16531 whole entry partner): as the sequence (Q16531 whole entry partner) above
In short: as §1

[4] = biological target: T4, GSPT1 (Homo sapiens, UniProt P15170+Q96SW2); assay: Western blot degradation of GSPT1 in hPBMCs (24 h)
T4 construct: The supernatant was aspirated as the extracted total cell protein; endogenous in cells; host or cells: human peripheral blood mononuclear cells (hPBMCs)
T4 sequence (P15170 whole entry): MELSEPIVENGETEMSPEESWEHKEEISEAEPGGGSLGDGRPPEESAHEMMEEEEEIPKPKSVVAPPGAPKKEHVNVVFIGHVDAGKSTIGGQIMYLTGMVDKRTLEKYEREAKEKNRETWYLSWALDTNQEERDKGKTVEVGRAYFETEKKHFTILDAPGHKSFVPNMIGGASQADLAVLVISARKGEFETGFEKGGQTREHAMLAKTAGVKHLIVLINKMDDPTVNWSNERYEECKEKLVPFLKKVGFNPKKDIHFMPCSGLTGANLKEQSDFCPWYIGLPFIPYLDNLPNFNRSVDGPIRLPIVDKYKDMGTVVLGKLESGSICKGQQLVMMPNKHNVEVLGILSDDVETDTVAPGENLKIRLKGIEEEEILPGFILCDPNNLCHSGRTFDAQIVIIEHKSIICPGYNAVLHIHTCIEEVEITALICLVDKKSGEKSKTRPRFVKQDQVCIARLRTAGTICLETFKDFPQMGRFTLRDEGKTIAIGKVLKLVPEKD
T4 sequence (Q96SW2 whole entry): as the sequence (Q96SW2 whole entry) above
T4 sequence (Q16531 whole entry partner): as the sequence (Q16531 whole entry partner) above
In short: as §1

[5] = biological target: T5, CK1α (Homo sapiens, UniProt P48729+Q96SW2); assay: Western blot degradation of CK1α in hPBMCs (24 h)
T5 construct: The supernatant was aspirated as the extracted total cell protein; endogenous in cells; host or cells: human peripheral blood mononuclear cells (hPBMCs)
T5 sequence (P48729 whole entry): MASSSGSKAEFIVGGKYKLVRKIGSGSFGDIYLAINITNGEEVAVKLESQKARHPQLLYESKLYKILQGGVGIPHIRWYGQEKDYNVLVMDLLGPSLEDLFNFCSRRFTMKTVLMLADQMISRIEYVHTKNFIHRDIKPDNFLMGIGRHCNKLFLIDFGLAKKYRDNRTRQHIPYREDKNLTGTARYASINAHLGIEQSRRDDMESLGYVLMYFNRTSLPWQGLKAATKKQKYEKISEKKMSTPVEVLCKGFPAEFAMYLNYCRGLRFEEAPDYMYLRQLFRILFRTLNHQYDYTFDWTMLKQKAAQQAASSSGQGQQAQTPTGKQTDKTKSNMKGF
T5 sequence (Q96SW2 whole entry): as the sequence (Q96SW2 whole entry) above
T5 sequence (Q16531 whole entry partner): as the sequence (Q16531 whole entry partner) above
In short: as §1

[6] = biological target: T6, IKZF1 (Homo sapiens, UniProt Q13422+Q96SW2); assay: Western blot degradation of IKZF1 in hPBMCs (24 h)
T6 construct: The supernatant was aspirated as the extracted total cell protein; endogenous in cells; host or cells: human peripheral blood mononuclear cells (hPBMCs)
T6 sequence (Q13422 whole entry): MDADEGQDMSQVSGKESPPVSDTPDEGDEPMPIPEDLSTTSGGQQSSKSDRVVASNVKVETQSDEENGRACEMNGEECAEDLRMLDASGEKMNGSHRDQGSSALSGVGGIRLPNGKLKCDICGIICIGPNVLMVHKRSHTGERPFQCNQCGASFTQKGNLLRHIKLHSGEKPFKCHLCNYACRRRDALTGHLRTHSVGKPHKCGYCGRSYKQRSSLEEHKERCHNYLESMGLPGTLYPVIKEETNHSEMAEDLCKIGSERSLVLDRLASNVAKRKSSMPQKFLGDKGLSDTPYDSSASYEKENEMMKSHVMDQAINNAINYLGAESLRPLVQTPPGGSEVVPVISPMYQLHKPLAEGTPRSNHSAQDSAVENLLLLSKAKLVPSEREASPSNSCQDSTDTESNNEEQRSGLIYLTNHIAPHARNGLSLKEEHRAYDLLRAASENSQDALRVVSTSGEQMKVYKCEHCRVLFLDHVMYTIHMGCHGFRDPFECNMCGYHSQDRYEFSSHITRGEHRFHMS
T6 sequence (Q96SW2 whole entry): as the sequence (Q96SW2 whole entry) above
T6 sequence (Q16531 whole entry partner): as the sequence (Q16531 whole entry partner) above
In short: as §1

| SMILES | IKZF2 substrate protein remaining % [1] | WEE1 substrate protein remaining % [2] | IKZF3 substrate protein remaining % [3] | GSPT1 substrate protein remaining % [4] | CK1α substrate protein remaining % [5] | IKZF1 substrate protein remaining % [6] |
| --- | --- | --- | --- | --- | --- | --- |
| O=C1CCN(N2C(=O)c3ccc(CN4CC=C(c5cccc(Cl)c5Cl)CC4)cc3C2=O)C(=O)N1 [GT-05249, 5-((4-(2,3-dichlorophenyl)-3,6-dihydropyridin-1(2H)-yl)methyl)-2-(2,4-dioxotetrahydropyrimidin-1(2H)-yl)isoindoline-1,3-dione] | B (80%< substrate protein remaining % ≤100%) | B (80%< substrate protein remaining % ≤100%) | B (80%< substrate protein remaining % ≤100%) | A (0% ≤ substrate protein remaining % ≤80%) | B (80%< substrate protein remaining % ≤100%) | A (0% ≤ substrate protein remaining % ≤80%) |
| O=C1CCN(N2C(=O)c3ccc(CN4CCC(c5cccc(Cl)c5Cl)CC4)cc3C2=O)C(=O)N1 [GT-05250, 5-((4-(2,3-dichlorophenyl)piperidin-1-yl)methyl)-2-(2,4-dioxotetrahydropyrimidin-1(2H)-yl)isoindoline-1,3-dione] | A (0% ≤ substrate protein remaining % ≤80%) | B (80%< substrate protein remaining % ≤100%) | B (80%< substrate protein remaining % ≤100%) | B (80%< substrate protein remaining % ≤100%) | B (80%< substrate protein remaining % ≤100%) | B (80%< substrate protein remaining % ≤100%) |
| O=C1CCN(N2C(=O)c3ccc(CN4C5CC4CN(c4cccc(Cl)c4Cl)C5)cc3C2=O)C(=O)N1 [GT-05251, 5-((3-(2,3-dichlorophenyl)-3,6-diazabicyclo[3.1.1]heptan-6-yl)methyl)-2-(2,4-dioxotetrahydropyrimidin-1(2H)-yl)isoindoline-1,3-dione] | A (0% ≤ substrate protein remaining % ≤80%) | B (80%< substrate protein remaining % ≤100%) | B (80%< substrate protein remaining % ≤100%) | B (80%< substrate protein remaining % ≤100%) | B (80%< substrate protein remaining % ≤100%) | B (80%< substrate protein remaining % ≤100%) |
| O=C1CCN(N2C(=O)c3ccc(CN4CCn5c(nnc5C(F)(F)F)C4)cc3C2=O)C(=O)N1 [GT-05253, 2-(2,4-dioxotetrahydropyrimidin-1(2H)-yl)-5-((3-(trifluoromethyl)-5,6-dihydro-[1,2,4]triazolo[4,3-a]pyrazin-7 (8H)-yl)methyl)isoindoline-1,3-dione] | B (80%< substrate protein remaining % ≤100%) | B (80%< substrate protein remaining % ≤100%) | B (80%< substrate protein remaining % ≤100%) | A (0% ≤ substrate protein remaining % ≤80%) | B (80%< substrate protein remaining % ≤100%) | B (80%< substrate protein remaining % ≤100%) |
| O=C1CCN(N2C(=O)c3ccc(CN4CCc5sccc5C4)cc3C2=O)C(=O)N1 [GT-05254, 5-((6,7-dihydrothieno[3,2-c]pyridin-5 (4H)-yl)methyl)-2-(2,4-dioxotetrahydropyrimidin-1(2H)-yl)isoindoline-1,3-dione] | B (80%< substrate protein remaining % ≤100%) | B (80%< substrate protein remaining % ≤100%) | B (80%< substrate protein remaining % ≤100%) | A (0% ≤ substrate protein remaining % ≤80%) | B (80%< substrate protein remaining % ≤100%) | B (80%< substrate protein remaining % ≤100%) |
